Values of other authors in US20220206017A1, “AEROBIC GLYCOLYSIS AND HYPERMETABOLIC STATES” (priority 2022, published 2022).

What was measured:
melanoma = conditions: in vivo; compared to L-Lactic Acid Dimer (LLAD) and phosphate buffered saline control; FIG. 3, ref [4]
hexokinase II = biological target: T1, hexokinase II (Homo sapiens, UniProt P52789); conditions: inhibition of hexokinase II; reported value
T1 sequence (P52789 1-917): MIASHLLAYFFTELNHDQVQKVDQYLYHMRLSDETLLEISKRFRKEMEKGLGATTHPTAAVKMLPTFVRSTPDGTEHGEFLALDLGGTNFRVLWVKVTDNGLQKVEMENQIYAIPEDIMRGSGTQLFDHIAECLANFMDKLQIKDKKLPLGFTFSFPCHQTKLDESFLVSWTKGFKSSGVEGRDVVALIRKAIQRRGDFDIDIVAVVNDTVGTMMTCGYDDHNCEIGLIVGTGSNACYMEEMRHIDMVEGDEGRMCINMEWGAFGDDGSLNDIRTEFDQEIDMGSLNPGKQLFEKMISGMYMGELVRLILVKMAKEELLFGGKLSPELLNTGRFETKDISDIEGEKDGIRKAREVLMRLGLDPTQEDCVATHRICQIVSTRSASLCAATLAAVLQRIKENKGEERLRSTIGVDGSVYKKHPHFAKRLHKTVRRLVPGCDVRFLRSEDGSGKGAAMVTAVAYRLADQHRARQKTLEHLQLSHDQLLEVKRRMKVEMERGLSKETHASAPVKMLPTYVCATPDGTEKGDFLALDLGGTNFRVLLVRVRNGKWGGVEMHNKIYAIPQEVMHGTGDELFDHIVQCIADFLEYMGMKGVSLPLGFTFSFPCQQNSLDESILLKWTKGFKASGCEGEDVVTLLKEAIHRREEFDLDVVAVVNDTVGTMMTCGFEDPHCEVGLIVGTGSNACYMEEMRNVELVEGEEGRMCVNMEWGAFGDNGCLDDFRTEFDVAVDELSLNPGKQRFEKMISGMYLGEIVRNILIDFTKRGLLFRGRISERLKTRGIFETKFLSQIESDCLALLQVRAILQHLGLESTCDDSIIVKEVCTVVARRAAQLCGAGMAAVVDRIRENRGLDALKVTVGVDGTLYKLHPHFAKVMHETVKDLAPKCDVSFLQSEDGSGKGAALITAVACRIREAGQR

Red blood cells (RBC) = conditions: monotherapy at known clinical doses
[1] = 3BP and DCA intravenous; 2DG oral

Ki (hexokinase II) [µM] | SMILES | melanoma cytotoxicity as measured by Ki-67 nuclei (melanoma) | RBC hemolysis (Red blood cells (RBC)) | side effects of administration / clinical use [1]
 | C[C@@H](O)C(=O)O[C@H](C)C(=O)O [DLAD, D-Lactic Acid Dimer] | impressive melanoma cytotoxicity |  | 
2900 | O=CC[C@@H](O)[C@H](O)[C@H](O)CO [2DG, 2-Deoxy-D-Glucose] |  | does not cause RBC hemolysis | generally well tolerated
 | O=C(O)C(=O)CBr [3BP, 3-Bromopyruvate] |  |  | pain and phlebitis
 | O=C(O)C(Cl)Cl [DCA, Dichloroacetate] |  |  | neurotoxicity
